Assay results: patent publication US6458769B1, “Amorphous compound” (AstraZeneca AB, priority 2001, dated 2002)

How the values were obtained:
[1] = cited from earlier work
[2] = Solubility determination by titrating deionised water, assessed visually; format: physicochemical; settings: visual, lower limit = soluble, upper limit = undissolved material present
Method: Solubility was assessed using known quantities (approx 1 mg) and titrating small volumes (2-40 microlitres) of deionised water and assessed visually. The data given are ranges. The lower limit represents soluble and upper limit the presence of undissolved material.

[3] = literature value, Ip et al. 1992; cited from earlier work
[4] = Thermal Mechanical Analysis (TMA) glass transition point; format: physicochemical; settings: compressed pellet, heating rate 10° C./min, 30-160° C.
Method: The method involves compressing 140 mg of material in a punch and die (3 mm) to 2 KN. The compressed pellet was then placed on the TMA and the 1.1 mm probe placed on the top face. A heating rate of 10° C./min was used and the sample was heated from 30-160° C.

[5] = Differential Scanning Calorimetry (DSC) glass transition; format: physicochemical; settings: dry amorphous lisinopril, anomalous endotherm
Method: Differential Scanning Calorimetry (DSC) was performed on approximately 0.5-3 mg sample, using a Mettler DSC820 instrument, according to standard methods, for example those described in Hohne et al. (1996) Differential scanning Calorimetry, Springer, Berlin.

In the case of `NCCCC[C@H](NC(CCc1ccccc1)C(=O)O)C(=O)N1CCC[C@H]1C(=O)O` (stereo partly drawn) [lisinopril, (S)-1-[N^2-(1-carboxy-3-phenylpropyl]-L-lysyl]-L-proline], the “effective half-life of accumulation” value ([1]; multiple dosing) is given as “about 12.6 hours” and the “time to peak serum concentrations” value ([1]; oral administration) is given as no more than 7 h.
In the case of `NCCCC[C@H](NC(CCc1ccccc1)C(=O)O)C(=O)N1CCC[C@H]1C(=O)O` (stereo partly drawn) [Dihydrate, (S)-1-[N^2-(1-carboxy-3-phenylpropyl]-L-lysyl]-L-proline], the “solubility” value [2] is given as 60 to 65 mg/mL and the “Reference solubility (mg/ml)” value [3] is given as 97^1 mg/ml.
In the case of `NCCCC[C@H](NC(CCc1ccccc1)C(=O)O)C(=O)N1CCC[C@H]1C(=O)O` (stereo partly drawn) [amorphous lisinopril, (S)-1-[N^2-(1-carboxy-3-phenylpropyl]-L-lysyl]-L-proline], the “solubility” value ([2]; listed as Amorphous) is reported as 900 to 1250 mg/mL, the “glass transition temperature by TMA” value [4] is reported as 129 °C and the “glass transition temperature (Tg) by DSC” value [5] is reported as 125 °C.
